Source: patent US8642629B2, “Naphthylacetic acids” (Hoffmann-La Roche Inc., priority 2008, dated 2014)

Molecular target: T1, human CRTH2 (Homo sapiens, UniProt Q9Y5Y4)
T1 construct: expressed in transfected cells; host or cells: CHO-K1
T1 sequence (Q9Y5Y4 1-395): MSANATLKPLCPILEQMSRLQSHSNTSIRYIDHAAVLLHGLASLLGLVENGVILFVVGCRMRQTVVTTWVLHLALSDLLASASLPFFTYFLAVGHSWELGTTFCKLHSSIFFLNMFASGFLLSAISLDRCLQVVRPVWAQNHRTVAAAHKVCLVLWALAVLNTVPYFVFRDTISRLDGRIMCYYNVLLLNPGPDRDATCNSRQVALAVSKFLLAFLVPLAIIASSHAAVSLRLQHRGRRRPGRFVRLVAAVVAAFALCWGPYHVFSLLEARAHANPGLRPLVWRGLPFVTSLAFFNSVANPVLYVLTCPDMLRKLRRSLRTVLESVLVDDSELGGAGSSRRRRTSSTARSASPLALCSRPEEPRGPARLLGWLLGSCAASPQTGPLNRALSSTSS
Assay: Human CRTH2 Receptor Binding Assay (whole cell, [3H]ramatroban competition)
Conditions: CHO-K1 cells expressing human CRTH2 and G-alpha16; 20 nM [3H]ramatroban; 1 hour, room temperature
Source text: A whole cell receptor binding assay using [^3H]ramatroban as the competing radioactive ligand was employed to evaluate the compound binding activity to human CRTH2. The radioactive ligand [^3H]ramatroban was synthesized according to Sugimoto et. al. (Eur. J. Pharmacol. 524, 30-37, 2005) to a specific activity of 42 Ci/mmol.
A cell line stably expressing human CRTH2 was established by transfecting CHO-K1 cells with two mammalian expression vectors that harbored human CRTH2 and G-alpha16 cDNAs, respectively, using FuGene® 6 transfection reagent (from Roche). Stable clones expressing CRTH2 were selected by staining each clone with BM16 (BD Pharmingen™ from BD Biosciences, a division of Becton, Dickinson and Company), which is a rat monoclonal antibody to human CRTH2. The cells were maintained as monolayer cultures in Ham's F-12 medium containing 10% fetal bovine serum, 100 units/mL penicillin, 100 μg/mL streptomycin, 2 mM glutamine, 0.5 mg/mL G418 (geneticin) for CRTH2, and 0.2 mg/mL hygromycin-B (for G-alpha 16). For whole cell receptor binding assay, the monolayer cells were rinsed once with PBS (phosphate buffered saline), dissociated using ethylenediaminetetraacetate (Versene™ EDTA from Lonza Inc.), and suspended in PBS containing 10 mM MgCl2 and 0.06% BSA (bovine serum albumin) at 1.5×10^6 cells/mL.
The binding reactions (0.2 mL) were performed in 96-well plates at room temperature in PBS containing 1.5×10^5 cells, 10 mM MgCl2, 0.06% BSA, 20 nM [^3H]ramatroban, and test compound at various concentrations. After 1 hour of binding reactions, the cells were harvested on GF™/B filter microplates (microtiter plates with embedded glass fiber from PerkinElmer, Inc.) and washed 5 times with PBS using a Filtermate™ Harvester (a cell harvester that harvests and washes cells from microplates from PerkinElmer, Inc.). The radioactivities bound to the cells were determined using a microplate scintillation counter (TopCount® NXT, from PerkinElmer, Inc.) after adding 50 μL of Microscint™ 20 scintillation fluid (from PerkinElmer, Inc.) to each well of the filter plates. The radioactivity from non-specific binding was determined by replacing compound with 10 μM of 15(R)-15-methyl PGD2 (from Cayman Chemical Company) in the reaction mixtures. The radioactivity bound to the cells in the absence of compound (total binding) was determined by replacing compound with 0.25% of DMSO (dimethyl sulfoxide) in the reaction mixture. Specific binding data were obtained by subtracting the radioactivity of non-specific binding from each binding data.
The IC50 value is defined as the concentration of the tested compound that is required for 50% inhibition of total specific binding. In order to calculate the IC50 value, the percent inhibition data were determined for 7 concentrations for each compound. The percent inhibition for a compound at each concentration was calculated according to the following formula, [1−(specific binding in the presence of compound)/(total specific binding)]×100. The IC50 value was then obtained by fitting the percent inhibition data to a sigmoidal dose-response (4 parameter logistic) model in the XLfit® software Excel add-in program [from ID Business Solutions Ltd., model 205, where F(x)=(A+(B−A)/(1+((C/x)^D)))].

SMILES | IC50 [nM]
Cc1cc(S(C)(=O)=O)ccc1Oc1c(C)c(CC(=O)O)cc2ccc(Cl)cc12 [Example 2-9, [6-chloro-4-(4-methanesulfonyl-2-methyl-phenoxy)-3-methyl-naphthalen-2-yl]-acetic acid] | 2.7
CCS(=O)(=O)c1ccc(Oc2c(C)c(CC(=O)O)cc3ccc(F)cc23)c(C)c1 [Example 2-10, [4-(4-ethanesulfonyl-2-methyl-phenoxy)-6-fluoro-3-methyl-naphthalen-2-yl]-acetic acid] | 7.3
Cc1c(CC(=O)O)cc2ccc(F)cc2c1Oc1ccc(S(C)(=O)=O)c(Cl)c1 [Example 2-11, [4-(3-chloro-4-methanesulfonyl-phenoxy)-6-fluoro-3-methyl-naphthalen-2-yl]-acetic acid] | 3
Cc1c(CC(=O)O)cc2ccc(F)cc2c1Oc1ccc(S(C)(=O)=O)cc1F [Example 2-12, [6-fluoro-4-(2-fluoro-4-methanesulfonyl-phenoxy)-3-methyl-naphthalen-2-yl]-acetic acid] | 1.8
CCS(=O)(=O)c1ccc(Oc2c(C)c(CC(=O)O)cc3ccc(F)cc23)c(F)c1 [Example 2-13, [4-(4-ethanesulfonyl-2-fluoro-phenoxy)-6-fluoro-3-methyl-naphthalen-2-yl]-acetic acid] | 2.4
CCS(=O)(=O)c1ccc(Oc2c(C)c(CC(=O)O)cc3ccc(F)cc23)cc1C [Example 2-14, [4-(4-ethanesulfonyl-3-methyl-phenoxy)-6-fluoro-3-methyl-naphthalen-2-yl]-acetic acid] | 1.6
Cc1c(CC(=O)O)cc2ccc(F)cc2c1Oc1cc(F)c(S(C)(=O)=O)cc1F [Example 2-15, [4-(2,5-difluoro-4-methanesulfonyl-phenoxy)-6-fluoro-3-methyl-naphthalen-2-yl]-acetic acid] | 2.6
Cc1c(CC(=O)O)cc2ccc(F)cc2c1Oc1ccc(S(C)(=O)=O)c(F)c1 [Example 2-16, [6-fluoro-4-(3-fluoro-4-methanesulfonyl-phenoxy)-3-methyl-naphthalen-2-yl]-acetic acid] | 3.4
CCS(=O)(=O)c1ccc(Oc2c(C)c(CC(=O)O)cc3ccc(F)cc23)cc1F [Example 2-17, [4-(4-ethanesulfonyl-3-fluoro-phenoxy)-6-fluoro-3-methyl-naphthalen-2-yl]-acetic acid] | 3.7
CCS(=O)(=O)c1ccc(Oc2c(C)c(CC(=O)O)cc3ccc(F)cc23)c(C#N)c1 [Example 2-18, [4-(2-cyano-4-ethanesulfonyl-phenoxy)-6-fluoro-3-methyl-naphthalen-2-yl]-acetic acid] | 1.7
CCS(=O)(=O)c1ccc(Oc2c(C)c(CC(=O)O)cc3ccc(F)cc23)cc1Cl [Example 2-19, [4-(3-chloro-4-ethanesulfonyl-phenoxy)-6-fluoro-3-methyl-naphthalen-2-yl]-acetic acid] | 12.4
Cc1c(CC(=O)O)cc2ccc(F)cc2c1Oc1ccc(S(C)(=O)=O)cc1Cl [Example 2-20, [4-(2-chloro-4-methanesulfonyl-phenoxy)-6-fluoro-3-methyl-naphthalen-2-yl]-acetic acid] | 2.5
CCS(=O)(=O)c1ccc(Oc2c(C)c(CC(=O)O)cc3ccc(F)cc23)c(Cl)c1 [Example 2-21, [4-(2-chloro-4-ethanesulfonyl-phenoxy)-6-fluoro-3-methyl-naphthalen-2-yl]-acetic acid] | 2.4
CCCS(=O)(=O)c1ccc(Oc2c(C)c(CC(=O)O)cc3ccc(F)cc23)cc1 [Example 2-22, {6-fluoro-3-methyl-4-[4-(propane-1-sulfonyl)-phenoxy]-naphthalen-2-yl}-acetic acid] | 2.4
CCCCS(=O)(=O)c1ccc(Oc2c(C)c(CC(=O)O)cc3ccc(F)cc23)cc1 [Example 2-23, {4-[4-(butane-1-sulfonyl)-phenoxy]-6-fluoro-3-methyl-naphthalen-2-yl}-acetic acid] | 2.1
CCS(=O)(=O)c1cc(F)c(Oc2c(C)c(CC(=O)O)cc3ccc(F)cc23)cc1Cl [Example 2-24, [4-(5-chloro-4-ethanesulfonyl-2-fluoro-phenoxy)-6-fluoro-3-methyl-naphthalen-2-yl]-acetic acid] | 8.2
CCS(=O)(=O)c1cc(Cl)c(Oc2c(C)c(CC(=O)O)cc3ccc(F)cc23)cc1F [Example 2-25, [4-(2-chloro-4-ethanesulfonyl-5-fluoro-phenoxy)-6-fluoro-3-methyl-naphthalen-2-yl]-acetic acid] | 2.4
Cc1c(CC(=O)O)cc2ccc(F)cc2c1Oc1ccc(S(=O)(=O)C2CCCC2)cc1 [Example 2-26, [4-(4-cyclopentanesulfonyl-phenoxy)-6-fluoro-3-methyl-naphthalen-2-yl]-acetic acid] | 2.3
Cc1c(CC(=O)O)cc2ccc(F)cc2c1Oc1ccc(S(=O)(=O)c2ccc(F)cc2)cc1 [Example 2-27, {6-fluoro-4-[4-(4-fluoro-benzenesulfonyl)-phenoxy]-3-methyl-naphthalen-2-yl}-acetic acid] | 2.9
Cc1c(CC(=O)O)cc2ccc(F)cc2c1Oc1ccc(S(=O)(=O)c2ccccc2)cc1 [Example 2-28, [4-(4-benzenesulfonyl-phenoxy)-6-fluoro-3-methyl-naphthalen-2-yl]-acetic acid] | 5
Cc1ccc(S(=O)(=O)c2ccc(Oc3c(C)c(CC(=O)O)cc4ccc(F)cc34)cc2)cc1 [Example 2-29, {6-fluoro-3-methyl-4-[4-(toluene-4-sulfonyl)-phenoxy]-naphthalen-2-yl}-acetic acid] | 2.8
COc1ccc(S(=O)(=O)c2ccc(Oc3c(C)c(CC(=O)O)cc4ccc(F)cc34)cc2)cc1 [Example 2-30, {6-fluoro-4-[4-(4-methoxy-benzenesulfonyl)-phenoxy]-3-methyl-naphthalen-2-yl}-acetic acid] | 2.7
Cc1c(CC(=O)O)cc2ccc(F)cc2c1Oc1ccc(S(=O)(=O)c2ccc(Cl)cc2)cc1 [Example 2-31, {4-[4-(4-chloro-benzenesulfonyl)-phenoxy]-6-fluoro-3-methyl-naphthalen-2-yl}-acetic acid] | 3.6
Cc1c(CC(=O)O)cc2ccc(F)cc2c1Oc1ccc(S(C)(=O)=O)cn1 [Example 2-32, [6-fluoro-4-(5-methanesulfonyl-pyridin-2-yloxy)-3-methyl-naphthalen-2-yl]-acetic acid] | 0.9
CCS(=O)(=O)c1ccc(Oc2c(C)c(CC(=O)O)cc3ccc(F)cc23)nc1 [Example 2-33, [4-(5-ethanesulfonyl-pyridin-2-yloxy)-6-fluoro-3-methyl-naphthalen-2-yl]-acetic acid] | 2.7
Cc1cc(S(C)(=O)=O)cnc1Oc1c(C)c(CC(=O)O)cc2ccc(F)cc12 [Example 2-34, [6-fluoro-4-(5-methanesulfonyl-3-methyl-pyridin-2-yloxy)-3-methyl-naphthalen-2-yl]-acetic acid] | 3.1
CCS(=O)(=O)c1cnc(Oc2c(C)c(CC(=O)O)cc3ccc(F)cc23)c(C)c1 [Example 2-35, [4-(5-ethanesulfonyl-3-methyl-pyridin-2-yloxy)-6-fluoro-3-methyl-naphthalen-2-yl]-acetic acid] | 2.9
Cc1c(CC(=O)O)cc2ccc(F)cc2c1Oc1ncc(S(C)(=O)=O)cc1Br [Example 2-36, [4-(3-bromo-5-methanesulfonyl-pyridin-2-yloxy)-6-fluoro-3-methyl-naphthalen-2-yl]-acetic acid] | 0.02
